Measured values: PubChem BioAssay AID308 (DTP/NCI, 2004)
Where “and” joins values, the source holds several entries; their conditions need not be identical. Equal entries are not always repeated. Toxic doses and inconclusive results are not listed. The calls were made as follows: active = survival T/C of 150% or more; inactive = T/C below 125% in these data.

Test system: BDF1 mice, L1210 6-MP/6-TG resistant leukemia ip, survival T/C
Experiment: NCI In Vivo Anticancer Drug Screen. Data for tumor model L1210 Leukemia resistant to 6-MP and 6-Thioguanine; NSC 755, NSC 752 (intraperitoneal) in B6D2F1 (BDF1) mice
Conditions: endpoint: mean survival time, higher = longer survival
Description: The antitumor activity of compounds was measured in mice bearing transplantable tumors. Survival or tumor size were measured and the results are expressed as the measurement made in the treated group (T) divided by the measurement made in the vehicle treated control group (C). The tumor model used in this assay is L1210 Leukemia resistant to 6-MP and 6-Thioguanine; NSC 755, NSC 752 (intraperitoneal) in B6D2F1 (BDF1) mice

[1] = dose: 20.0 mg/kg/injection, schedule: Q01DX015 (ip), vehicle: carboxymethylcellulose (CMC)
[2] = dose: 40.0 mg/kg/injection, schedule: Q01DX015 (ip), vehicle: carboxymethylcellulose (CMC)
[3] = dose: 18.75 mg/kg/injection, schedule: Q01DX Z (ip), vehicle: carboxymethylcellulose (CMC)
[4] = dose: 25.0 mg/kg/injection, schedule: Q01DX Z (ip), vehicle: carboxymethylcellulose (CMC)
[5] = dose: 37.5 mg/kg/injection, schedule: Q01DX Z (ip), vehicle: carboxymethylcellulose (CMC)
[6] = dose: 62.0 mg/kg/injection, schedule: Q01DX015 (ip), vehicle: carboxymethylcellulose (CMC)
[7] = dose: 125.0 mg/kg/injection, schedule: Q01DX015 (ip), vehicle: carboxymethylcellulose (CMC)
[8] = dose: 250.0 mg/kg/injection, schedule: Q01DX015 (ip), vehicle: carboxymethylcellulose (CMC)

Measured: T/C

CCCCCCCSc1ncnc2c1ncn2CO
inactive: dose: 150.0 mg/kg/injection, schedule: Q01DX009 (ip), vehicle: other 96 % of control | dose: 200.0 mg/kg/injection, schedule: Q01DX009 (ip), vehicle: other 95 % of control | dose: 300.0 mg/kg/injection, schedule: Q01DX009 (ip), vehicle: other 100 % of control | dose: 400.0 mg/kg/injection, schedule: Q01DX009 (ip), vehicle: other 86 % of control

COc1cc2c(c3c1c(=O)c1ccccc1n3C)C=CC(C)(C)O2
inactive: [1] 106 % of control | [2] 116 % of control

Cc1cc(N(CCCl)CCCl)ccc1N=Nc1ccccc1C(=O)O
inactive: dose: 4.5 mg/kg/injection, schedule: Q01DX Z (ip), vehicle: carboxymethylcellulose (CMC) 119 % of control | dose: 9.0 mg/kg/injection, schedule: Q01DX Z (ip), vehicle: carboxymethylcellulose (CMC) 124 % of control | [3] 114 % of control | [4] 123 % of control | [5] 90 % of control

C=C(C)CSc1ncnc2nc[nH]c12
inactive: dose: 62.0 mg/kg/injection, schedule: Q01DX015 (ip), vehicle: other 109 % of control | dose: 125.0 mg/kg/injection, schedule: Q01DX015 (ip), vehicle: other 95 % of control | dose: 250.0 mg/kg/injection, schedule: Q01DX015 (ip), vehicle: other 100 % of control

C(=C\c1ccccc1)/CSc1ncnc2nc[nH]c12
inactive: [6] 98 % of control | [7] 96 % of control | [8] 91 % of control | dose: 500.0 mg/kg/injection, schedule: Q01DX015 (ip), vehicle: carboxymethylcellulose (CMC) 90 % of control | dose: 1000.0 mg/kg/injection, schedule: Q01DX015 (ip), vehicle: carboxymethylcellulose (CMC) 90 % of control

S=c1nc[nH]c2nc[nH]c12
inactive: dose: 3.5 mg/kg/injection, schedule: Q01DX Z (ip), vehicle: carboxymethylcellulose (CMC) 99 % of control | dose: 5.0 mg/kg/injection, schedule: Q01DX015 (ip), vehicle: carboxymethylcellulose (CMC) 93 % of control and 101 % of control | dose: 7.0 mg/kg/injection, schedule: Q01DX Z (ip), vehicle: carboxymethylcellulose (CMC) 100 % of control and 103 % of control and 106 % of control | dose: 8.0 mg/kg/injection, schedule: Q01DX015 (ip), vehicle: carboxymethylcellulose (CMC) 94 % of control and 97 % of control and 103 % of control | dose: 10.0 mg/kg/injection, schedule: Q01DX015 (ip), vehicle: alkali diluted with saline 96 % of control | dose: 12.0 mg/kg/injection, schedule: Q01DX015 (ip), vehicle: carboxymethylcellulose (CMC) 90 % of control and 95 % of control and 96 % of control | dose: 12.0 mg/kg/injection, schedule: Q01DX Z (ip), vehicle: carboxymethylcellulose (CMC) 110 % of control | dose: 12.5 mg/kg/injection, schedule: Q01DX Z (ip), vehicle: carboxymethylcellulose (CMC) 95 % of control | dose: 14.0 mg/kg/injection, schedule: Q01DX Z (ip), vehicle: carboxymethylcellulose (CMC) 96 % of control and 98 % of control and 104 % of control | dose: 16.0 mg/kg/injection, schedule: Q01DX015 (ip), vehicle: carboxymethylcellulose (CMC) 95 % of control | dose: 18.0 mg/kg/injection, schedule: Q01DX015 (ip), vehicle: carboxymethylcellulose (CMC) 93 % of control and 100 % of control | dose: 19.0 mg/kg/injection, schedule: Q01DX Z (ip), vehicle: carboxymethylcellulose (CMC) 123 % of control | dose: 20.0 mg/kg/injection, schedule: Q01DX015 (ip), vehicle: alkali diluted with saline 103 % of control | [1] 96 % of control | dose: 20.0 mg/kg/injection, schedule: Q01DX Z (ip), vehicle: carboxymethylcellulose (CMC) 101 % of control | dose: 24.0 mg/kg/injection, schedule: Q01DX015 (ip), vehicle: carboxymethylcellulose (CMC) 93 % of control | [4] 88 % of control | dose: 26.0 mg/kg/injection, schedule: Q01DX001 (ip), vehicle: alkali diluted with saline 97 % of control and 101 % of control | dose: 27.0 mg/kg/injection, schedule: Q01DX015 (ip), vehicle: carboxymethylcellulose (CMC) 96 % of control and 100 % of control | dose: 40.0 mg/kg/injection, schedule: Q01DX001 (ip), vehicle: alkali diluted with saline 96 % of control and 98 % of control (2×) | dose: 40.0 mg/kg/injection, schedule: Q01DX001 (ip), vehicle: carboxymethylcellulose (CMC) 102 % of control and 109 % of control | dose: 40.0 mg/kg/injection, schedule: Q01DX015 (ip), vehicle: alkali diluted with saline 103 % of control | [2] 92 % of control and 95 % of control | dose: 42.0 mg/kg/injection, schedule: Q01DX Z (ip), vehicle: carboxymethylcellulose (CMC) 103 % of control | dose: 50.0 mg/kg/injection, schedule: Q01DX Z (ip), vehicle: carboxymethylcellulose (CMC) 91 % of control | dose: 56.0 mg/kg/injection, schedule: Q01DX Z (ip), vehicle: carboxymethylcellulose (CMC) 93 % of control and 97 % of control | dose: 59.0 mg/kg/injection, schedule: Q01DX001 (ip), vehicle: carboxymethylcellulose (CMC) 100 % of control | dose: 60.0 mg/kg/injection, schedule: Q01DX001 (ip), vehicle: alkali diluted with saline 96 % of control (2×) and 106 % of control | dose: 60.0 mg/kg/injection, schedule: Q01DX001 (ip), vehicle: carboxymethylcellulose (CMC) 108 % of control | dose: 60.0 mg/kg/injection, schedule: Q01DX010 (ip), vehicle: alkali diluted with saline 94 % of control | dose: 90.0 mg/kg/injection, schedule: Q01DX001 (ip), vehicle: alkali diluted with saline 87 % of control and 97 % of control and 103 % of control | dose: 90.0 mg/kg/injection, schedule: Q01DX001 (ip), vehicle: carboxymethylcellulose (CMC) 99 % of control and 102 % of control | dose: 100.0 mg/kg/injection, schedule: Q01DX Z (ip), vehicle: carboxymethylcellulose (CMC) 91 % of control | dose: 135.0 mg/kg/injection, schedule: Q01DX001 (ip), vehicle: alkali diluted with saline 96 % of control and 103 % of control and 105 % of control | dose: 150.0 mg/kg/injection, schedule: Q01DX001 (ip), vehicle: carboxymethylcellulose (CMC) 96 % of control | dose: 202.0 mg/kg/injection, schedule: Q01DX001 (ip), vehicle: alkali diluted with saline 99 % of control and 100 % of control and 102 % of control | dose: 203.0 mg/kg/injection, schedule: Q01DX001 (ip), vehicle: carboxymethylcellulose (CMC) 95 % of control

CC(=O)CSc1ncnc2nc[nH]c12
inactive: dose: 3.12 mg/kg/injection, schedule: Q01DX015 (ip), vehicle: carboxymethylcellulose (CMC) 93 % of control | dose: 6.25 mg/kg/injection, schedule: Q01DX015 (ip), vehicle: carboxymethylcellulose (CMC) 98 % of control | dose: 12.5 mg/kg/injection, schedule: Q01DX015 (ip), vehicle: carboxymethylcellulose (CMC) 103 % of control | dose: 25.0 mg/kg/injection, schedule: Q01DX015 (ip), vehicle: carboxymethylcellulose (CMC) 96 % of control | dose: 50.0 mg/kg/injection, schedule: Q01DX015 (ip), vehicle: carboxymethylcellulose (CMC) 96 % of control | [6] 100 % of control | [7] 100 % of control | [8] 95 % of control

CC1CCOS(=O)O1 (stereo not given)
inactive: dose: 12.5 mg/kg/injection, schedule: Q01DX Z (ip), vehicle: saline 101 % of control | dose: 25.0 mg/kg/injection, schedule: Q01DX Z (ip), vehicle: saline 106 % of control | dose: 37.5 mg/kg/injection, schedule: Q01DX Z (ip), vehicle: saline 97 % of control | dose: 75.0 mg/kg/injection, schedule: Q01DX Z (ip), vehicle: saline 99 % of control | dose: 100.0 mg/kg/injection, schedule: Q01DX Z (ip), vehicle: saline 91 % of control

O=CCC(O)C(O)C(O)CO (stereo not given)
inactive: dose: 375.0 mg/kg/injection, schedule: Q01DX Z (ip), vehicle: saline 113 % of control | dose: 500.0 mg/kg/injection, schedule: Q01DX Z (ip), vehicle: saline 113 % of control | dose: 750.0 mg/kg/injection, schedule: Q01DX Z (ip), vehicle: saline 116 % of control | dose: 1000.0 mg/kg/injection, schedule: Q01DX Z (ip), vehicle: saline 123 % of control

Nn1cnc2c(=S)nc[nH]c21
inactive: dose: 18.0 mg/kg/injection, schedule: Q01DX009 (ip), vehicle: other 98 % of control | dose: 28.0 mg/kg/injection, schedule: Q01DX009 (ip), vehicle: other 96 % of control | dose: 42.0 mg/kg/injection, schedule: Q01DX015 (ip), vehicle: other 99 % of control | dose: 72.0 mg/kg/injection, schedule: Q01DX015 (ip), vehicle: other 92 % of control

Cn1c(N)nc2nc[nH]c2c1=S
inactive: [3] 98 % of control | [5] 109 % of control | dose: 75.0 mg/kg/injection, schedule: Q01DX Z (ip), vehicle: carboxymethylcellulose (CMC) 109 % of control
